For 35 molecules, EC50 and CC50 results are on record in US20180072997A1, “INHIBITORS OF HUMAN IMMUNODEFICIENCY VIRUS REPLICATION” (ViiV HEATHCARE UK (NO.5) LIMITED, priority 2015, published 2018).

The EC50 is the concentration giving half of the maximal effect. In general, CC50 refers to the concentration at which the toxic effect on the cells reaches its halfway point.

In data set [1] the test system is recombinant NL4-3 virus (Renilla luciferase in nef) in MT-2 cells. Kind of data set: whole plant or invertebrate. Particulars: Renilla, NL43, MT-2 cells infected for 4-5 days with recombinant NL4-3 Renilla luciferase virus; luciferase activity. It is filed as cell-based, HIV. Here is the method:
HIV cell culture assay—MT-2 cells, 293T cells and the proviral DNA clone of NL4-3 virus were obtained from the NIH AIDS Research and Reference Reagent Program. MT-2 cells were propagated in RPMI 1640 media supplemented with 10% heat inactivated fetal bovine serum (FBS), 100 μg/ml penicillin G and up to 100 units/mL streptomycin. The 293T cells were propagated in DMEM media supplemented with 10% heat inactivated FBS, 100 μg/mL penicillin G and 100 μg/mL streptomycin. A recombinant NL4-3 proviral clone, in which a section of the nef gene was replaced with the Renilla luciferase gene, was used to make the reference virus used in these studies. The recombinant virus was prepared through transfection of the recombinant NL4-3 proviral clone into 293T cells using Transit-293 Transfection Reagent from Mirus Bio LLC (Madison, Wis.). Supernatent was harvested after 2-3 days and the amount of virus present was titered in MT-2 cells using luciferase enzyme activity as a marker by measuring luciferase enzyme activity. Luciferase was quantitated using the EnduRen Live Cell Substrate from Promega (Madison, Wis.). Antiviral activities of compounds toward the recombinant virus were quantified by measuring luciferase activity in MT-2 cells infected for 4-5 days with the recombinant virus in the presence of serial dilutions of the compound.
(Johnson V A, Byington R T. Infectivity Assay. In Techniques in HIV Research. ed. Aldovini A, Walker BD. 71-76. New York: Stockton Press.1990).

Data set [2] is described as follows: Compound cytotoxicity, XTT-based colorimetric assay. It is filed as cell-based. Conditions: human, uninfected MT2 cells, day 4, XTT. Here is the method: Compound cytotoxicity and the corresponding CC50 values were determined using the same protocol as described in the antiviral assay except that uninfected cells were used. Cytotoxicity was assessed on day 4 in uninfected MT2 cells by using a XTT (2,3-bis[2-Methoxy-4-nitro-5-sulfophenyl]-2H-tetrazolium-5-carboxyanilide inner salt)-based colorimetric assay (Sigma-Aldrich, St Louis, Mo.).
Background: Formazan colour is commonly taken as a measure of viable cells.

Where only a bound is given, the exact number is not on record here.

As for `COc1ccc(N(C)C(=O)[C@H](Cc2ccccc2)NC(=O)C(C)(C)C(=O)N[C@@H](Cc2ccccc2)C(=O)N(C)c2ccc(OC)cc2)cc1` [Example 4], in data set [1], the concentration giving a half-maximal response (EC50) worked out at 1.87 µM. The CC50 at 4 days in data set [2] is ≥ 100 µM.
The like results for `COc1ccc(N(C)C(=O)[C@H](Cc2ccccc2)NS(=O)(=O)CCCS(=O)(=O)N[C@@H](Cc2ccccc2)C(=O)N(C)c2ccc(OC)cc2)cc1` [Example 28] were, in that order, 1.4 µM and 30 µM.
Turning to `COc1ccc(N(C)C(=O)[C@H](Cc2ccccc2)NC(=O)c2nc[nH]c2C(=O)N[C@@H](Cc2ccccc2)C(=O)N(C)c2ccc(OC)cc2)cc1` [Example 59], the concentration giving a half-maximal response (EC50) in data set [1] is 3.34 µM. The same molecule came in with a CC50 at 4 days in data set [2] of 11 µM.
For the molecule `COc1ccc(N(C)C(=O)[C@H](Cc2ccccc2)NC(=O)CCCCC(=O)N[C@@H](Cc2ccccc2)C(=O)N(C)c2ccc(OC)cc2)cc1` [Example 23], the concentration giving a half-maximal response (EC50) in data set [1] turned out to be 1.16 µM. In addition, in data set [2], the half-maximal cytotoxic concentration (CC50) at 4 days worked out at 26.9 µM.
On to `COc1ccc(N(C)C(=O)[C@H](Cc2cc(F)cc(F)c2)NC(=O)NS(=O)(=O)N[C@@H](Cc2ccccc2)C(=O)N(C)c2ccc(OC)cc2)cc1` [Example 45], for which, in data set [1], the EC50 amounted to 0.01 µM. This molecule returned a half-maximal cytotoxic concentration (CC50) at 4 days in data set [2] of 38.8 µM.
Consider `COc1ccc(N(C)C(=O)[C@H](Cc2ccccc2)NC(=O)Cn2c(=O)c3ccccc3c(=O)n2CC(=O)N[C@@H](Cc2ccccc2)C(=O)N(C)c2ccc(OC)cc2)cc1` [Example 92], for which the EC50 in data set [1] was determined as 0.29 µM. Also, the midpoint of cytotoxicity in data set [2], the CC50 at 4 days, lay at 10.1 µM.
For `Cc1ncc(N(C)C(=O)[C@H](Cc2cc(F)cc(F)c2)NC(=O)NS(=O)(=O)N[C@@H](Cc2cc(F)cc(F)c2)C(=O)N(C)c2cnc(C)nc2)cn1` [Example 207], in that order: 25 µM and ≥ 25 µM.
The like results for `COc1ccc(N(C)C(=O)[C@H](Cc2ccccc2)NC(=O)/C=C/C(=O)N[C@@H](Cc2ccccc2)C(=O)N(C)c2ccc(OC)cc2)cc1` [Example 31] were, in that order, 0.78 µM and 3.5 µM.
The like results for `COc1ccc(N(C)C(=O)[C@H](Cc2ccccc2)NC(=O)Cc2ccc(CC(=O)N[C@@H](Cc3ccccc3)C(=O)N(C)c3ccc(OC)cc3)cc2)cc1` [Example 47] were, in that order, 2.76 µM and 11.1 µM.
Take `COc1ccc(N(C)C(=O)[C@H](Cc2ccccc2)NC(=O)C(C)n2c(=O)n(C(C)C(=O)N[C@@H](Cc3ccccc3)C(=O)N(C)c3ccc(OC)cc3)c3ccccc32)cc1` (single isomer, unassigned) [Example 131]: the EC50 in data set [1] was determined as 0.49 µM. The same molecule had a CC50 at 4 days in data set [2] of 6.3 µM.
In the case of `COc1ccc(N(C)C(=O)[C@H](Cc2ccccc2)NC(=O)NS(=O)(=O)N[C@@H](Cc2ccc(F)cc2)C(=O)N(C)C)cc1` [Example 9], the EC50 in data set [1] was 2.67 µM. Also, the CC50 at 4 days in data set [2] was ≥ 100 µM.
As to `CN(C(=O)[C@H](Cc1cc(F)cc(F)c1)NC(=O)/C=C\C(=O)N[C@@H](Cc1cc(F)cc(F)c1)C(=O)N(C)c1ccc2scnc2c1)c1ccc2scnc2c1` [Example 128], in data set [1], the EC50 amounted to 0.08 µM. This molecule also had a CC50 at 4 days in data set [2] of 12.6 µM.
For the molecule `COc1ccc(N(C)C(=O)[C@H](Cc2ccccc2)NC(=O)c2ccc(C(=O)N[C@@H](Cc3ccccc3)C(=O)N(C)c3ccc(OC)cc3)s2)cc1` [Example 58], in data set [1], the half-maximal effective concentration (EC50) was 0.61 µM. In addition, the 50% cytotoxic concentration (CC50) at 4 days in data set [2] was determined as 3.3 µM.
On to `COc1ccc(N(C)C(=O)[C@H](Cc2cc(F)cc(F)c2)NC(=O)CN2c3ccccc3N(CC(=O)N[C@@H](Cc3cc(F)cc(F)c3)C(=O)N(C)c3ccc(OC)c(F)c3)S2(=O)=O)cc1F` [Example 231], for which the EC50 in data set [1] worked out at 0.04 µM. For the same molecule, the cytotoxic concentration (CC50) at 4 days in data set [2] is ≥ 100 µM.
For `COc1ccc(N(C)C(=O)[C@H](Cc2cc(F)cc(F)c2)NC(=O)NS(=O)(=O)N[C@@H](Cc2cc(F)cc(F)c2)C(=O)N(C)c2ccc(OC)cc2)cc1` [Example 20], the 50% effective concentration (EC50) in data set [1] is 0.01 µM. The CC50 at 4 days in data set [2] was 35 µM.
On to `COc1ccc(N(C)C(=O)[C@H](Cc2ccccc2)NC(=O)CNC(=O)NCC(=O)N[C@@H](Cc2ccccc2)C(=O)N(C)c2ccc(OC)cc2)cc1` [Example 68], for which, in data set [1], the concentration for a half-maximal effect (EC50) was 1.42 µM. The same molecule displayed a CC50 at 4 days in data set [2] of 69.3 µM.
With `COc1ccc(N(C)C(=O)[C@H](Cc2ccccc2)NC(=O)OCCOC(=O)N[C@@H](Cc2ccccc2)C(=O)N(C)c2ccc(OC)cc2)cc1` [Example 56], the EC50 in data set [1] was determined as 2.6 µM. In data set [2], this molecule registered a half-maximal cytotoxic concentration (CC50) at 4 days of 10.5 µM.
Take `COc1ccc(N(C)C(=O)[C@H](Cc2ccccc2)NC(=O)NS(=O)(=O)N[C@@H](Cc2ccccc2)C(=O)N(C)c2ccc(OC)cc2C)cc1` [Example 16]: the concentration for a half-maximal effect (EC50) in data set [1] stood at 1.72 µM. In data set [2], the CC50 at 4 days is ≥ 33.3 µM.
Turning to `CCN(C(=O)[C@H](Cc1cc(F)cc(F)c1)NC(=O)CN1c2ccccc2N(CC(=O)N[C@@H](Cc2cc(F)cc(F)c2)C(=O)N(CC)c2ccc(OC(F)F)cc2)S1(=O)=O)c1ccc(OC(F)F)cc1` [Example 147], the EC50 in data set [1] was found to be 0.09 µM. Further, the CC50 at 4 days in data set [2] is ≥ 100 µM.
Turning to `CN(C(=O)[C@H](Cc1cc(F)cc(F)c1)NC(=O)NS(=O)(=O)N[C@@H](Cc1cc(F)cc(F)c1)C(=O)N(C)c1ccc2c(c1)OCCO2)c1ccc2c(c1)OCCO2` [Example 162], the concentration giving a half-maximal response (EC50) in data set [1] amounted to 0.07 µM. Besides, the midpoint of cytotoxicity in data set [2], the CC50 at 4 days, lay at 43.9 µM.
As for `C=CCN(C(=O)[C@H](Cc1cc(F)cc(F)c1)NC(=O)CC(C)(C)CC(=O)N[C@@H](Cc1cc(F)cc(F)c1)C(=O)N(CC=C)c1ccc(OC)cc1)c1ccc(OC)cc1` [Example 171], the concentration giving a half-maximal response (EC50) in data set [1] was found to be 100 µM. Besides, the 50% cytotoxic concentration (CC50) at 4 days in data set [2] was ≥ 100 µM.
With `CN(C(=O)[C@H](Cc1cc(F)cc(F)c1)NC(=O)NS(=O)(=O)N[C@@H](Cc1cc(F)cc(F)c1)C(=O)N(C)c1ccc2c(cnn2C)c1)c1ccc2c(cnn2C)c1` [Example 185], in data set [1], the EC50 is 0.08 µM. This molecule also came in with a CC50 at 4 days in data set [2] of 96 µM.
Turning to `CN(C(=O)[C@H](Cc1ccccc1)NC(=O)c1cccc(C(=O)N[C@@H](Cc2ccccc2)C(=O)N(C)c2ccc3scnc3c2)c1)c1ccc2scnc2c1` [Example 50], the concentration giving a half-maximal response (EC50) in data set [1] worked out at 0.04 µM. Moreover, the CC50 at 4 days in data set [2] amounted to 3.7 µM.
Turning to `COc1ccc(N(C)C(=O)[C@H](Cc2ccccc2)NC(=O)c2cc(C(=O)N[C@@H](Cc3ccccc3)C(=O)N(C)c3ccc(OC)cc3)[nH]n2)cc1` [Example 57], the EC50 in data set [1] is 1.58 µM. The CC50 at 4 days in data set [2] amounted to 3.5 µM.
As to `CN(C(=O)[C@H](Cc1cc(F)cc(F)c1)NC(=O)c1ccc(F)c(C(=O)N[C@@H](Cc2cc(F)cc(F)c2)C(=O)N(C)c2ccc3scnc3c2)c1)c1ccc2scnc2c1` [Example 126], the EC50 in data set [1] was 0.01 µM. Moreover, the 50% cytotoxic concentration (CC50) at 4 days in data set [2] was ≥ 100 µM.
For `COc1ccc(N(C)C(=O)[C@H](Cc2ccccc2)NC(=O)c2cccc(C(=O)N[C@@H](Cc3ccccc3)C(=O)N(C)c3ccc(OC)cc3)n2)cc1` [Example 39], the half-maximal effective concentration (EC50) in data set [1] was determined as 0.95 µM. The CC50 at 4 days in data set [2] was ≥ 33.3 µM.
For `COc1ccc(N(C)C(=O)[C@H](Cc2ccccc2)NC(=O)NS(=O)(=O)N[C@@H](Cc2ccccc2)C(=O)N(C)c2cc(OC)c(OC)c(OC)c2)cc1` [Example 17], in that order: 12.2 µM and 15.9 µM.
Regarding `COc1ccc(N(C)C(=O)[C@H](Cc2ccccc2)NC(=O)Cc2cn(CC(=O)N[C@@H](Cc3ccccc3)C(=O)N(C)c3ccc(OC)cc3)c3ccccc23)cc1` [Example 61], the EC50 in data set [1] came to 0.61 µM. In addition, the CC50 at 4 days in data set [2] stood at 32.6 µM.
The like results for `COc1ccc(N(C)C(=O)[C@H](Cc2ccccc2)NC(=O)NS(=O)(=O)N[C@@H](Cc2ccccc2)C(=O)N2CCCC2)cc1` [Example 8] were, in that order, 2.04 µM and ≥ 33.3 µM.
For `CN(C(=O)[C@H](Cc1ccccc1)NC(=O)NS(=O)(=O)N[C@@H](Cc1ccccc1)C(=O)N(C)c1ccc(C(C)(C)C)cc1)c1ccc(C(C)(C)C)cc1` [Example 167], in that order: 0.27 µM and 26.5 µM.
On to `COc1ccc(N(C)C(=O)[C@H](Cc2ccccc2)NC(=O)NS(=O)(=O)N[C@@H](Cc2ccccc2)C(=O)N(C)c2cc(C)c(OC)cc2C)cc1` [Example 15], for which the EC50 in data set [1] was determined as 4.22 µM. The cytotoxic concentration (CC50) at 4 days in data set [2] is 35.3 µM.
The like results for `COc1ccc(N(C)C(=O)[C@H](Cc2ccccc2)NC(=O)c2ccnc(C(=O)N[C@@H](Cc3ccccc3)C(=O)N(C)c3ccc(OC)cc3)c2)cc1` [Example 105] were, in that order, 0.68 µM and 3.1 µM.
The like results for `COc1ccc(N(C)C(=O)[C@H](Cc2ccccc2)Nc2ncnc(N[C@@H](Cc3ccccc3)C(=O)N(C)c3ccc(OC)cc3)n2)cc1` [Example 109] were, in that order, 6.87 µM and 65.4 µM.
For the molecule `COc1ccc(N(C)C(=O)[C@H](Cc2ccccc2)NC(=O)Cn2c(=O)n(CC(=O)N[C@@H](Cc3ccccc3)C(=O)N(C)c3ccc(OC)cc3)c3cc(F)ccc32)cc1` [Example 75], in data set [1], the EC50 was found to be 0.08 µM. It took 11.5 µM to reach half-maximal cytotoxicity in data set [2] (CC50 at 4 days).
For `CN(C(=O)[C@H](Cc1cc(F)cc(F)c1)NC(=O)c1cccc(C(=O)N[C@@H](Cc2cc(F)cc(F)c2)C(=O)N(C)c2ccc3scnc3c2)c1Cl)c1ccc2scnc2c1` [Example 82], in that order: 0.07 µM and ≥ 100 µM.
